Assay results from patent US20170121322A1, “BET-PROTEIN INHIBITING 3,4-DIHYDROPYRIDO[2,3-B]PYRAZINONES WITH META-SUBSTITUTED AROMATIC AMINO- OR ETHER GROUPS” (Bayer Pharma Aktiengesellschaft, priority 2014, published 2017).

Target: T1, BRD4 bromo domain 2 [BRD4(2)] (Homo sapiens, UniProt O60885)
T1 construct: N-terminally His6-tagged BRD4(2) (amino acids 357-445); made in house; host or cells: E. coli
Assay: BRD4(2)/acetylated peptide H4 TR-FRET binding assay
Conditions: His6-BRD4(2) (aa 357-445) vs acetylated histone H4 peptide
Source text: To assess the BRD4(2) binding strength of the substances described in this application, the ability thereof to inhibit the interaction between BRD4(2) and acetylated histone H4 in a dose-dependent manner was quantified.
For this purpose, a time-resolved fluorescence resonance energy transfer (TR-FRET) assay was used, which measures the binding between N-terminally His6-tagged BRD4(2) (amino acids 357-445) and a synthetic acetylated histone H4 (Ac-H4) peptide with sequence SGRGK(Ac)GGK(Ac)GLGK(Ac)GGAK(Ac)RHRKVLRDNGSGSK-biotin. The recombinant BRD4(2) protein produced in-house according to Filippakopoulos et al., Cell, 2012, 149:214-231 was expressed in E. coli and purified by means of (Ni-NTA) affinity and (Sephadex G-75) size exclusion chromatography. The Ac-H4 peptide can be purchased, for example, from Biosyntan (Berlin, Germany).
In the assay, typically 11 different concentrations of each substance (0.1 nM, 0.33 nM, 1.1 nM, 3.8 nM, 13 nM, 44 nM, 0.15 μM, 0.51 μM, 1.7 μM, 5.9 μM and 20 μM) were analysed as duplicates on the same microtitre plate. For this purpose, 100-fold concentrated solutions in DMSO were prepared by serial dilutions (1:3.4) of a 2 mM stock solution into a clear, 384-well microtitre plate (Greiner Bio-One, Frickenhausen, Germany). From this, 50 nl were transferred into a black test plate (Greiner Bio-One, Frickenhausen, Germany). The test was started by the addition of 2 μl of a 2.5-fold concentrated BRD4(2) solution (final concentration typically 100 nM in the 5 μl of reaction volume) in aqueous assay buffer [50 mM HEPES pH 7.5, 50 mM sodium chloride (NaCl); 50 mM potassium fluoride (KF); 0.25 mM CHAPS and 0.05% serum albumin (BSA)] to the substances in the test plate. This was followed by a 10-minute incubation step at 22° C. for the pre-equilibration of putative complexes between BRD4(2) and the substances.
The mixture was then incubated in the dark at 22° C. for one hour and then at 4° C. for at least 3 hours and for no longer than overnight. The formation of BRD4(2)/Ac-H4 complexes was determined by the measurement of the resonance energy transfer from the streptavidin-Eu chelate to the anti-6His-XL665 antibody present in the reaction. For this purpose, the fluorescence emission was measured at 620 nm and 665 nm after excitation at 330-350 nm in a TR-FRET measuring instrument, for example a Rubystar or Pherastar (both from BMG Lab Technologies, Offenburg, Germany) or a Viewlux (Perkin-Elmer). The ratio of the emissions at 665 nm and at 622 nm was taken as an indicator of the amount of BRD4(2)/Ac-H4 complexes formed.
The data (ratios) obtained were normalized, with 0% inhibition corresponding to the mean from the measurements for a set of controls (typically 32 data points) in which all the reagents were present. In these, in place of test substances, 50 nl of DMSO (100%) were used. Inhibition of 100% corresponded to the mean from the measurements for a set of controls (typically 32 data points) in which all the reagents except BRD4(2) were present. The IC50 was determined by regression analysis based on a 4-parameter equation (minimum, maximum, IC50, Hill; Y=Max+(Min−Max)/(1+(X/IC50)Hill)).

SMILES	IC50 [nM]
COc1ccc(S(=O)(=O)C(C)C)cc1Nc1ccc2c(n1)N(C1CCN(CC(F)(F)F)CC1)[C@H](C)C(=O)N2C [Example 28, (3R)-6-{[5-(Isopropylsulphonyl)-2-methoxyphenyl]amino}-1,3-dimethyl-4-[1-(2,2,2-trifluoroethyl)piperidin-4-yl]-3,4-dihydropyrido[2,3-b]pyrazin-2(1H)-one]	63
COc1ccc(S(=O)(=O)C(C)C)cc1Nc1ccc2c(n1)N(C1CCN(CC(F)F)CC1)[C@H](C)C(=O)N2C [Example 29, (3R)-4-[1-(2,2-Difluoroethyl)piperidin-4-yl]-6-{[5-(isopropylsulphonyl)-2-methoxyphenyl]amino}-1,3-dimethyl-3,4-dihydropyrido[2,3-b]pyrazin-2(1H)-one]	67
COc1ccc(S(=O)(=O)C(C)C)cc1Nc1ccc2c(n1)N(C1CCN(CCC(F)(F)F)CC1)[C@H](C)C(=O)N2C [Example 31, (3R)-6-{[5-(Isopropylsulphonyl)-2-methoxyphenyl]amino}-1,3-dimethyl-4-[1-(3,3,3-trifluoropropyl)piperidin-4-yl]-3,4-dihydropyrido[2,3-b]pyrazin-2(1H)-one]	68
COc1cc(Nc2ccc3c(n2)N(C2CCOCC2)[C@H](C)C(=O)N3C)cc(S(C)(=O)=O)c1 [Example 40, (3R)-6-{[3-Methoxy-5-(methylsulphonyl)phenyl]amino}-1,3-dimethyl-4-(tetrahydro-2H-pyran-4-yl)-3,4-dihydropyrido[2,3-b]pyrazin-2(1H)-one]	94
Cc1cc(Nc2ccc3c(n2)N(C2CCOCC2)[C@H](C)C(=O)N3C)ccn1 [Example 42, (3R)-1,3-Dimethyl-6-[(2-methylpyridin-4-yl)amino]-4-(tetrahydro-2H-pyran-4-yl)-3,4-dihydropyrido[2,3-b]pyrazin-2(1H)-one]	180
C[C@@H]1C(=O)N(C)c2ccc(Nc3cccc(C(F)(F)F)c3)nc2N1C1CCOCC1 [Example 43, (3R)-1,3-Dimethyl-4-(tetrahydro-2H-pyran-4-yl)-6-{[3-(trifluoromethyl)phenyl]amino}-3,4-dihydropyrido[2,3-b]pyrazin-2(1H)-one]	234

Now those with a lower IC50, led by results:

IC50 [nM]	SMILES
44	COc1ccc(S(=O)(=O)C2CCOCC2)cc1Nc1ccc2c(n1)N(C1CCOCC1)[C@H](C)C(=O)N2C [Example 34, (3R)-6-{[2-Methoxy-5-(tetrahydro-2H-pyran-4-ylsulphonyl)phenyl]amino}-1,3-dimethyl-4-(tetrahydro-2H-pyran-4-yl)-3,4-dihydropyrido[2,3-b]pyrazin-2(1H)-one]
51	COc1ccc(S(=O)(=O)C2CCC2)cc1Nc1ccc2c(n1)N(C1CCOCC1)[C@H](C)C(=O)N2C [Example 35, (3R)-6-{[5-(Cyclobutylsulphonyl)-2-methoxyphenyl]amino}-1,3-dimethyl-4-(tetrahydro-2H-pyran-4-yl)-3,4-dihydropyrido[2,3-b]pyrazin-2(1H)-one]
52	CC(C)S(=O)(=O)c1ccc(OC(F)(F)F)c(Nc2ccc3c(n2)N(C2CCOCC2)[C@H](C)C(=O)N3C)c1 [Example 38, (3R)-6-{[5-(Isopropylsulphonyl)-2-(trifluoromethoxy)phenyl]amino}-1,3-dimethyl-4-(tetrahydro-2H-pyran-4-yl)-3,4-dihydropyrido[2,3-b]pyrazin-2(1H)-one]
56	COc1ccc(S(=O)(=O)C(F)(F)F)cc1Nc1ccc2c(n1)N(C1CCOCC1)[C@H](C)C(=O)N2C [Example 39, (3R)-6-({2-Methoxy-5-[(trifluoromethyl)sulphonyl]phenyl}amino)-1,3-dimethyl-4-(tetrahydro-2H-pyran-4-yl)-3,4-dihydropyrido[2,3-b]pyrazin-2(1H)-one]
